The structures appear in SMILES notation.

We go through 15 compounds from patent publication US12630565B2, “DNA-dependent protein kinase inhibitor” (DIZAL (JIANGSU) PHARMACEUTICAL CO., LTD., priority 2019, dated 2026).

Data set [1] is described as follows: Metabolic stability assay (human microsomal Clint). The note with it: human, pooled human liver microsomes, pH 7.4, 1 μM compound, 1 mg/mL microsomes, 1 mM NADPH, 37° C. The format is in vitro ADME. How it is done: 1 μM compound was incubated with 1 mg/mL of microsomes (Pooled HLM with 20 mg/ml protein cone) at 37° C. in 250 μL of buffer (100 mM phosphate buffer, pH-7.4) containing 1 mM NADPH solution. 20 μL of incubation mix was quenched with 5 volumes chilled acetonitrile at different time points 0, 0.5, 5, 10, 15, 20 and 30 min in a fresh 96 well plate. The quench plate was centrifuged at 4000 rpm for 15 min. 40 μL of supernatant was diluted to 200 μL with pure water and analyzed using LC-MS/MS.
In vitro intrinsic clearance of the drugs in the microsome CLint (μl/min/mg) was calculated in the similar manner as the CLint in the hepatocyte.
On the technique in general: Liver microsomes are vesicles of endoplasmic reticulum, rich in cytochrome P450 enzymes.

In another data set the test system is Rat hepatocyte. Briefly: Metabolic stability assay (rat hepatocyte Clint). The format is in vitro ADME. The conditions noted are these: 1 μM compound, cryopreserved hepatocytes 1 million cells per mL. How it is done:
Viability of cryopreserved hepatocytes was determined using trypan blue and the cell conc. was adjusted to […] with buffer. 1 μM compound (in Acetonitrile; 0.01% DMSO) was incubated with 250 μL of hepatocytecells (1 million cells per mL) in a 96 deep well plate. Reaction was stopped at different time points (0, 0.5, 5, 15, 30, 45, 60, 80, 100 and 120 min) by addition of 3 volumes of chilled acetonitrile to 20 μL of reaction mixture and centrifuged at 4° C. for 15 min. 40 μL of supernatant was diluted to 200 μL with pure water and analyzed using LC-MS/MS.
In vitro hepatocyte clearance was estimated based on determination of elimination half-life (T1/2) of compounds disappearance from their initial concentrations. Peak area ratios of each compound (test or control) to IS was calculated. Drug elimination rate constant k (min−1), T1/2 (min), and in vitro intrinsic clearance CLint (μL/min/E6) was calculated according to the following equations: […]
Where Chep (cells×μL^−1) is the cell concentration in the incubation system.

The test system of a further data set is MDR1, BCRP. Description: MDCKII-MDR1-BCRP efflux assay. The data set is classed as in vitro ADME. The note with it: dog, pH 7.4, 5 μM compound, HBSS pH 7.4, read-out: MDCK-Mdr1-BCRP efflux ratio. How it is done: The apical-to-basolateral (A-B) and basolateral-to-apical (B-A) transport of compound in HBSS (25 mM HEPES, pH 7.4) was measured across MDCKII-MDR1-BCRP cell monolayers. Incubations were performed at approximately 37° C. for 120 min, with functionality of the test system being confirmed using 5 μM digoxin as a positive control substrate. Transport of 5 μM compound and control compound were determined by quantifying substrate concentration in the incubation medium of donor compartment at the beginning of the incubation period, and both donor and receiver compartments at the end of the incubation period. The data was used to calculate the apparent permeability (Papp). All incubations were performed in triplicate and integrity of the cell monolayers was confirmed using the marker Lucifer yellow.
The permeability coefficient Pexact (cm/s) was calculated using the equation: […]
The Pexact ratio was calculated using the equation: […]
The efflux ratio was calculated using the equation: […]
Where dCr/dt is the cumulative concentration of compound in the receiver chamber as a function of time (μM/s); Vr is the solution volume in the receiver chamber (0.1 mL on the apical side, 0.3 mL on the basolateral side); A is the surface area for the transport, i.e. 0.11 cm2 for the area of the monolayer; CO is the initial concentration in the donor chamber (μM).

Data set [2] addresses Full length human DNAPK protein (Homo sapiens, UniProt P78527). Briefly: DNA-PK enzymatic assay (TR-FRET). The format is biochemical. The conditions noted are these: 10 μM ATP, 1.6 μM peptide substrate. For orientation: Time-resolved FRET reads energy transfer from a long-lived donor to a nearby acceptor.

One may read the microsomal CLint as the capacity of the preparation to metabolise the compound, expressed as a volume cleared per time. A lower microsomal CLint goes with slow turnover. The term IC50 denotes the midpoint of a concentration-inhibition curve. `Cc1cc2ncnn2cc1Nc1ncc2c(C)nn(C3COC3)c2n1` [Example 44, 3-methyl-N-(7-methyl-[1,2,4]triazolo[1,5-a]pyridin-6-yl)-1-(oxetan-3-yl)-1H-pyrazolo[3,4-d]pyrimidin-6-amine] had a microsomal CLint at 1 μM in data set [1] of 8.8 µL/min/mg. In the data set on Rat hepatocyte, the “Rat hepatocyte CLint (μl/min/10^−6 cells)” value (“Rat hepatocyte CLint” below) was 1.9 μl/min/10^−6 cells. Besides, the efflux ratio at 120 min, 5 μM in the data set with MDR1, BCRP is 4.3. Further, in data set [2], the IC50 amounted to 24 nM.

Compound `COc1cc(C)c(Nc2ncc3c(C)nn(C4CCOCC4)c3n2)cn1` [Example 89, N-(6-methoxy-4-methylpyridin-3-yl)-3-methyl-1-(tetrahydro-2H-pyran-4-yl)-1H-pyrazolo[3,4-d]pyrimidin-6-amine] came in with a microsomal CLint at 1 μM in data set [1] of 10.1 µL/min/mg. The “Rat hepatocyte CLint” value with Rat hepatocyte is 9.6 μl/min/10^−6 cells. The efflux ratio at 120 min, 5 μM with MDR1, BCRP stood at 0.8. In data set [2], this compound displayed an IC50 of 6.2 nM.

In data set [1], `Cc1cc2ncnn2cc1Nc1ncc2c(n1)c([C@H]1CC[C@H](OC(F)F)CC1)nn2C` [Example 12, 3-((1r,4r)-4-(difluoromethoxy)cyclohexyl)-1-methyl-N-(7-methyl-[1,2,4]triazolo[1,5-a]pyridin-6-yl)-1H-pyrazolo[4,3-d]pyrimidin-5-amine] registered an intrinsic clearance (microsomal CLint) at 1 μM of 109 µL/min/mg. The “Rat hepatocyte CLint” value in the data set with Rat hepatocyte turned out to be 70.3 μl/min/10^−6 cells. The efflux ratio at 120 min, 5 μM in the data set with MDR1, BCRP is 2.1. The compound also displayed an IC50 in data set [2] of 1.1 nM.

The compound `Cc1cc2ncnn2cc1Nc1ncc2c(C)nn(C3CCOCC3)c2n1` [Example 13, 3-methyl-N-(7-methyl-[1,2,4]triazolo[1,5-a]pyridin-6-yl)-1-(tetrahydro-2H-pyran-4-yl)-1H-pyrazolo[3,4-d]pyrimidin-6-amine] displayed a microsomal CLint at 1 μM in data set [1] of 12.9 µL/min/mg. The “Rat hepatocyte CLint” value in the data set with Rat hepatocyte is reported as under 1 μl/min/10^−6 cells. The efflux ratio at 120 min, 5 μM with MDR1, BCRP came to 2.8. The half-inhibitory concentration (IC50) in data set [2] is 3.9 nM.

Take `Cc1cc2ncnn2cc1Nc1ncc2c(C)nn([C@H]3CC[C@H](O)CC3)c2n1` [Example 31, (1r,4r)-4-(3-methyl-6-((7-methyl-[1,2,4]triazolo[1,5-a]pyridin-6-yl)amino)-1H-pyrazolo[3,4-d]pyrimidin-1-yl)cyclohexan-1-ol]: the microsomal CLint at 1 μM in data set [1] is 6.6 µL/min/mg. The “Rat hepatocyte CLint” value in the data set with Rat hepatocyte is 12.4 μl/min/10^−6 cells. The efflux ratio at 120 min, 5 μM with MDR1, BCRP is 31.2. Further, in data set [2], 1.8 nM corresponded to half-maximal inhibition (IC50).

Compound `COCCCn1nc(C)c2cnc(Nc3cn4ncnc4cc3C)nc21` [Example 65, 1-(3-methoxypropyl)-3-methyl-N-(7-methyl-[1,2,4]triazolo[1,5-a]pyridin-6-yl)-1H-pyrazolo[3,4-d]pyrimidin-6-amine] came in with an intrinsic metabolic clearance (microsomal CLint) at 1 μM in data set [1] of 17.1 µL/min/mg. The “Rat hepatocyte CLint” value in the data set with Rat hepatocyte is reported as 13.3 μl/min/10^−6 cells. The efflux ratio at 120 min, 5 μM in the data set with MDR1, BCRP was 2. The same compound yielded an IC50 in data set [2] of 8 nM.

Consider `Cc1cc2nccn2cc1Nc1ncc2c(n1)c(C1=CCOCC1)nn2C` [Example 6, 3-(3,6-dihydro-2H-pyran-4-yl)-1-methyl-N-(7-methylimidazo[1,2-a]pyridin-6-yl)-1H-pyrazolo[4,3-d]pyrimidin-5-amine], for which, in data set [1], the microsomal CLint at 1 μM is 35.5 µL/min/mg. Also, the “Rat hepatocyte CLint” value in the data set with Rat hepatocyte stood at 6.8 μl/min/10^−6 cells. In the data set with MDR1, BCRP, the efflux ratio at 120 min, 5 μM amounted to 4.9. In addition, the IC50 in data set [2] is 1.6 nM.

For the compound `Cc1cc2ncnn2cc1Nc1ncc2c(n1)c([C@H]1CC[C@@H](OC(F)F)CC1)nn2C` [Example 11, 3-((1s,4s)-4-(difluoromethoxy)cyclohexyl)-1-methyl-N-(7-methyl-[1,2,4]triazolo[1,5-a]pyridin-6-yl)-1H-pyrazolo[4,3-d]pyrimidin-5-amine], the microsomal CLint at 1 μM in data set [1] is over 300 µL/min/mg. Moreover, the “Rat hepatocyte CLint” value with Rat hepatocyte was found to be 190.4 μl/min/10^−6 cells. For the same compound, in the data set with MDR1, BCRP, the efflux ratio at 120 min, 5 μM was found to be 1.8. Also, the IC50 in data set [2] was determined as 0.7 nM.

As for `Cc1cc2ncnn2cc1Nc1ncc2c(C)nn(C3CCCOCC3)c2n1` (single isomer, unassigned) [Example 33, 3-methyl-N-(7-methyl-[1,2,4]triazolo[1,5-a]pyridin-6-yl)-1-(oxepan-4-yl)-1H-pyrazolo[3,4-d]pyrimidin-6-amine], in data set [1], the microsomal CLint at 1 μM came to 41.5 µL/min/mg. For the same compound, in the data set on Rat hepatocyte, the “Rat hepatocyte CLint” value is reported as 11.3 μl/min/10^−6 cells. Also, the efflux ratio at 120 min, 5 μM with MDR1, BCRP is 3. This compound showed an IC50 in data set [2] of 1.5 nM.

`CO[C@H]1CC[C@@H](c2nn(C)c3cnc(Nc4cn5ncnc5cc4C)nc32)CC1` [Example 8, 3-((1s,4s)-4-methoxycyclohexyl)-1-methyl-N-(7-methyl-[1,2,4]triazolo[1,5-a]pyridin-6-yl)-1H-pyrazolo[4,3-d]pyrimidin-5-amine] displayed a microsomal CLint at 1 μM in data set [1] of 234 µL/min/mg. For the same compound, in the data set on Rat hepatocyte, the “Rat hepatocyte CLint” value was 20.7 μl/min/10^−6 cells. Also, the efflux ratio at 120 min, 5 μM in the data set on MDR1, BCRP was found to be 1.7. The IC50 in data set [2] was 0.7 nM.

The compound `Cc1nn(C2CCOCC2)c2nc(Nc3cn4ncnc4cc3Cl)ncc12` [Example 16, N-(7-chloro-[1,2,4]triazolo[1,5-a]pyridin-6-yl)-3-methyl-1-(tetrahydro-2H-pyran-4-yl)-1H-pyrazolo[3,4-d]pyrimidin-6-amine] came in with an intrinsic metabolic clearance (microsomal CLint) at 1 μM in data set [1] of 26.4 µL/min/mg. In addition, the “Rat hepatocyte CLint” value with Rat hepatocyte is given as 11.8 μl/min/10^−6 cells. In the data set on MDR1, BCRP, the efflux ratio at 120 min, 5 μM is 0.8. In data set [2], half-maximal inhibition (IC50) required 8.4 nM.

The compound `COC1CCC(n2nc(C)c3cnc(Nc4cn5ncnc5cc4C)nc32)C1` (single isomer, unassigned) [Example 108, 1-(3-methoxycyclopentyl)-3-methyl-N-(7-methyl-[1,2,4]triazolo[1,5-a]pyridin-6-yl)-1H-pyrazolo[3,4-d]pyrimidin-6-amine] returned an intrinsic clearance (microsomal CLint) at 1 μM in data set [1] of 89 µL/min/mg. Besides, in the data set with Rat hepatocyte, the “Rat hepatocyte CLint” value amounted to 17.2 μl/min/10^−6 cells. Moreover, in the data set on MDR1, BCRP, the efflux ratio at 120 min, 5 μM was found to be 2. The compound also returned a half-inhibitory concentration (IC50) in data set [2] of 1.9 nM.

With `COC(C)Cn1nc(C)c2cnc(Nc3cn4ncnc4cc3C)nc21` (racemic) [Example 69, 1-(2-methoxypropyl)-3-methyl-N-(7-methyl-[1,2,4]triazolo[1,5-a]pyridin-6-yl)-1H-pyrazolo[3,4-d]pyrimidin-6-amine], the intrinsic metabolic clearance (microsomal CLint) at 1 μM in data set [1] amounted to 13.6 µL/min/mg. Besides, the “Rat hepatocyte CLint” value in the data set with Rat hepatocyte is 6.3 μl/min/10^−6 cells. In addition, the efflux ratio at 120 min, 5 μM in the data set with MDR1, BCRP worked out at 3. The compound further came in with an IC50 in data set [2] of 8.8 nM.

Turning to `Cc1cc2ncnn2cc1Nc1ncc2c(C)nn(CC3CCCO3)c2n1` (single isomer, unassigned) [Example 50, 3-methyl-N-(7-methyl-[1,2,4]triazolo[1,5-a]pyridin-6-yl)-1-((tetrahydrofuran-2-yl)methyl)-1H-pyrazolo[3,4-d]pyrimidin-6-amine], the microsomal CLint at 1 μM in data set [1] amounted to 12.2 µL/min/mg. Also, in the data set on Rat hepatocyte, the “Rat hepatocyte CLint” value is 2.1 μl/min/10^−6 cells. The efflux ratio at 120 min, 5 μM in the data set on MDR1, BCRP stood at 2.7. The compound further came in with an IC50 in data set [2] of 7 nM.

`Cc1cc2ncnn2cc1Nc1ncc2c(C)nn(C3CCOC3)c2n1` (single isomer, unassigned) [Example 48, 3-methyl-N-(7-methyl-[1,2,4]triazolo[1,5-a]pyridin-6-yl)-1-(tetrahydrofuran-3-yl)-1H-pyrazolo[3,4-d]pyrimidin-6-amine]: the microsomal CLint at 1 μM in data set [1] was 11.1 µL/min/mg. For the same compound, the “Rat hepatocyte CLint” value in the data set with Rat hepatocyte is under 1 μl/min/10^−6 cells. The efflux ratio at 120 min, 5 μM in the data set with MDR1, BCRP came out at 3.6. In data set [2], this compound displayed an IC50 of 1.8 nM.
